# What was measured:
# C57 and BTBR mice [1] = assay: Social preference procedure: social novelty preference test; assay type: in vivo, mouse
# Experimental: (§1) All drugs were dissolved in physiological 0.9% saline and administered at a constant volume of 1 ml/100 g body weight. Because all drugs utilized in these studies were synthesized as hydrochloride (HCl) salts, they were weighed as salts prior to the preparation of all solutions. All drugs at all concentrations are readily dissolved in an aqueous solution at normal pH. Injections of all drugs were administered intraperitoneally (IP) to mimic pharmacokinetic parameters typical of oral administration, without the behaviour-impairing effects of gavage stress.
# (§2) This assay was conducted in adult male C57 and BTBR mice (n=6 per group) in a dedicated conditioning room where ambient light, sound, and human contact were tightly controlled.
# Social preference chambers consisted of two polycarbonate boxes (13.5 cm wide×22.5 cm tall×31.0 cm deep), floored with rough-textured black ABS plastic, and connected to one another by a 1.25″ PVC T-junction. An infrared photobeam emitter/detector array was mounted at each intersection of the T-junction and each preference compartment, and as a mouse traversed the apparatus, it would break the photobeam upon entry to or exit from each preference compartment. Beam breaks started or stopped a counter on an interfaced computer, allowing automated collection of time spent in each compartment. […]
# C57 and BTBR mice [2] = assay: Compartment entries during social novelty test (proxy for locomotor stimulant effects); assay type: in vivo, mouse; details: 1 mg/kg, C57 mice, relative to saline
# Source text: (§3) Social preference chambers consisted of two polycarbonate boxes (13.5 cm wide×22.5 cm tall×31.0 cm deep), floored with rough-textured black ABS plastic, and connected to one another by a 1.25″ PVC T-junction. An infrared photobeam emitter/detector array was mounted at each intersection of the T-junction and each preference compartment, and as a mouse traversed the apparatus, it would break the photobeam upon entry to or exit from each preference compartment. Beam breaks started or stopped a counter on an interfaced computer, allowing automated collection of time spent in each compartment. At the end of each test, data were reported as time (in seconds) spent in each compartment, the number of entries into each compartment, and the average time spent in each compartment following an entry. Social preference tests were conducted in an iterative manner, with each test subject completing four distinct phases as described below. Between testing sessions, chambers were sanitized by wiping the insides with a disinfectant product provided by the UAMS Department of Laboratory Animal Medicine. At the end of the week (upon completion of all phases of the procedure), each apparatus was disassembled and all parts were sanitized. No food or water were available during social preference sessions, but were available in the home cage immediately afterwards.
# Quantifying total entries into the preference compartments provides a proxy measurement for locomotor stimulant effects of the various doses of the various test drugs. This establishes a limit to the drug doses that can be tested in the social preference procedure, as induction of locomotor stimulant effects confounds preference assessments (because mice stop attending to the social stimuli in each compartment and instead spend their time engaged in locomotor behavior.) Motor activity varies across the distinct phases of social preference testing, in part because the habituation session is twice as long (30 minutes) as the novelty, sociability, and social novelty tests (15 minutes each), but also because mice emit high levels of exploratory behavior in novel environments. Thus, as familiarity with the test apparatus increases over successive exposures to the chambers, the number of entries decreases.
# (Note that entries were collected for every test, but drug effects on entries during earlier phases may be less reliable due to the confounding influence of changing familiarity with the apparatus across phases.)
# C57 and BTBR mice [3] = assay: Conditioned place preference; assay type: in vivo, mouse
# Experimental: The same 2-compartment chambers as described above in the social preference studies for conditioned place preference. For these studies, compartments are differentiated by floor texture (rough black plastic vs steel punch plate) and wall pattern (vertical vs. horizontal stripes.) An initial preference/habituation test was first run where mice were able to freely traverse the apparatus for 30 minutes. The following day, mice were assigned to receive saline in one compartment and drug in the other. Saline pairings occurred in the morning, drug pairings occurred in the afternoon, and were separated by at least 4 hours, during which time mice returned to their home cages. Three such pairings were performed, where mice were injected, returned to the home cage for a 15 min pretreatment period, then confined to the injection-appropriate compartment for 30 minutes. Half the subjects (within strain) received drug pairings on the plastic floor+vertical stripes side, and the other half received drug pairings on the punch plate floor+horizontal stripes side. […] The post-conditioning preference test was identical to the initial preference/habituation session, where mice were freely able to traverse the apparatus for 30 minutes. Time spent in each compartment was recorded, and expressed as a preference score for the drug paired side (calculated as time spent in that compartment during the post-test—time spent there during the pre-test.) All preference and conditioning sessions were conducted under the same low light conditions as in the social preference tests.
# C57 and BTBR mice [4] = assay: Social preference procedure: novelty preference test; assay type: in vivo, mouse; details: 1 mg/kg IP
# Experimental: as §1, §2
# as §3, with “afterwards. […]” for “afterwards.”
# C57 and BTBR mice [5] = assay: Social preference procedure: sociability test; assay type: in vivo, mouse; details: 1 mg/kg IP
# Experimental: as §1, §2, §3
# A single sociability session occurred the day after the novelty preference test, where one compartment contained a wire mesh cup with a dummy mouse inside while the other compartment contained a male NIH Swiss stranger mouse inside the previously empty cup (see FIG. 4). […] The position of the dummy mouse (left or right compartment) remained the same for each subject as during the novelty test the day before, thereby counterbalancing the position of the stranger mouse across subjects. NIH Swiss stranger mice were similar in mass and appearance to the dummy PVC mice, and were housed separately from the experimental subjects (C57 and BTBR mice) in the colony facility. The first time the experimental subjects ever encountered the stranger mice was when they entered the compartment where they were contained. During this session, mice were weighed, administered the same injection as the day before, and returned to their home cage for a 30 min pretreatment period. Mice were then introduced into the T-junction and allowed to explore both preference compartments for 15 minutes. Sociability tests always occurred on Wednesdays or Thursdays to prevent any weekend testing.
# DAT = DAT (Homo sapiens, UniProt Q01959); assay: QSAR model predicted IC50, DAT; details: ratio = 1/DAT IC50:1/SERT IC50, from predicted IC50
# DAT, sequence (Q01959 whole entry, species assumed): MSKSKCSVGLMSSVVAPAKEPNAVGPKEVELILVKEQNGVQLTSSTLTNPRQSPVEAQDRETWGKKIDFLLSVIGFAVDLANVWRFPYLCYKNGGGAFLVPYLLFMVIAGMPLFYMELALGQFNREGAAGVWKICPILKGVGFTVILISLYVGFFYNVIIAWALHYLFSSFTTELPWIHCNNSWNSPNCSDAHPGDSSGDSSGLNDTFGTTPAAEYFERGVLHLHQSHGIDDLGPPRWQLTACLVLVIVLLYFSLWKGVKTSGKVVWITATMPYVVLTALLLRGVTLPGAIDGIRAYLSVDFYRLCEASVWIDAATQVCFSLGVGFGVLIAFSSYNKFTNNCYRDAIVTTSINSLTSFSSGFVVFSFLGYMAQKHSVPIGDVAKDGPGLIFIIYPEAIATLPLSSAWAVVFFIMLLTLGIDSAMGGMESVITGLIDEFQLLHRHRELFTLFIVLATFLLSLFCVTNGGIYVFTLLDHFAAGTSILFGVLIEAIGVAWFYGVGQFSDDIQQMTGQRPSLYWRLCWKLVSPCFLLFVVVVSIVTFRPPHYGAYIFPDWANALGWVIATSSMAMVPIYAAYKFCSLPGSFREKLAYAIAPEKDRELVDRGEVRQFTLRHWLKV
# Experimental: In silico studies (QSAR and docking) are useful tools to understand drug mechanisms, and they are relatively cheaper and faster than experiments. A QSAR model was created for each monoamine transporter. Additionally, the docking properties of phenethylamines were investigated.
# QSAR: DAT, SERT and NET IC50 values were collected from the literature for 73 phenethylamines. Three different software's were used for descriptor calculations, and almost 2000 descriptors were calculated. Highly correlated descriptors were eliminated before multi-linear regression (MLR) analysis. All descriptors were merged with experimental inhibition values in QSARiNS software. The multi-Criteria Decision-Making tool of QSARiNS was used to pick the best model.
# The predicted IC^50 (mM) values of the test molecules generated based on the QSAR developed as described above are presented in Table 4.
# [6] = 3 mg/kg, x3 pairings, C57 and BTBR mice
compound,measurement,setting,value
"c1cc2c(cc1CC1CCCN1)OCO2 (racemic) [(R/S)-I, (R/S)-2-[(2H-1,3-benzodioxol-5-yl)methyl]pyrrolidine]","pro-social response (time with stranger mouse, social novelty preference)",C57 and BTBR mice [1]; 1 mg/kg,strongest pro-social response
same,"pro-social response (time with stranger mouse, social novelty preference)",C57 and BTBR mice [1]; 1.8 mg/kg,the response drops
"CNC(C)Cc1ccc2c(c1)OCO2 (racemic) [racemic MDMA, 1-(1,3-benzodioxol-5-yl)-N-methylpropan-2-amine, reference compound]",total entries during social novelty test,C57 and BTBR mice [2],no effect
same,place conditioning (place preference),C57 and BTBR mice [3]; [6],significant place preferences
same,effect on novelty preference (time spent with dummy mouse),C57 and BTBR mice [4],no systematic effects
same,sociability (time spent with stranger mouse),C57 and BTBR mice [5]; BTBR mice,minor increase in the sociability response
same,sociability (time spent with stranger mouse),C57 and BTBR mice [5]; C57 mice,no impact
"CN[C@H](C)Cc1ccc2c(c1)OCO2 [R-MDMA, reference compound]",DAT/SERT (calculated),DAT,0.010
same,place conditioning (place preference),"C57 and BTBR mice [3]; 10 mg/kg, either strain",no significant effects
"CN[C@@H](C)Cc1ccc2c(c1)OCO2 [S-MDMA, reference compound]",DAT/SERT (calculated),DAT,0.383
same,place conditioning (place preference),C57 and BTBR mice [3]; [6],significant place preferences
"CN[C@@H](C)Cc1ccccc1 [S-methamphetamine, reference compound]",place conditioning (place preference),"C57 and BTBR mice [3]; 1.0 and 3.0 mg/kg, x3 pairings, C57 and BTBR mice",significant place preferences in C57 mice only

# Reference: patent US12042478B2, “(R)-2-[(2H-1,3-benzodioxol-5-yl)methyl]pyrrolidine and processes for preparation, compositions and uses thereof” (Pharmala Biotech Inc., priority 2022, dated 2024)
